Values quoted from earlier work, collected in patent publication US7652014B2, “Substituted 6-cyclohexylalkyl substituted 2-quinolinones and 2-quinoxalinones as poly(ADP-ribose) polymerase inhibitors” (Janssen Pharmaceutica, priority 2003, dated 2010).

Key:
[1] = system: infarct size caused by ischemia and reperfusion of the heart; conditions: rabbits, cited from earlier work
[2] = system: colitis; conditions: rats, trinitrobenzene sulfonic acid induced colitis, distal colon; cited from earlier work

Row | Structure (SMILES) | reduction in infarct size in the heart ([1]; single injection 10 mg/kg, one minute before occlusion or one minute before reperfusion) | effect on inflammatory response in colitis [2] | reduction in infarct size ([1]; single injection 1 mg/kg)
1 | NC(=O)c1cccc(N)c1 [3-amino-benzamide] | 32-42% | reduced the inflammatory response | 
2 | Oc1cccc2c(O)nccc12 [1,5-dihydroxyisoquinoline] |  |  | 38-48%
